Data on five compounds can be found in patent publication US7534778B2, “(20S)-1α-hydroxy-2-methylene-19-nor-bishomopregnacalciferol and its uses” (Wisconsin Alumni Research Foundation, priority 2001, dated 2009).

Entries after “also recorded” stand apart in the source; their conditions may differ. Where two headings read alike, the source gives them in different places.

Data set [1] deals with T1, full-length recombinant rat vitamin D receptor (Rattus norvegicus, UniProt P13053).
T1 sequence (P13053 1-423): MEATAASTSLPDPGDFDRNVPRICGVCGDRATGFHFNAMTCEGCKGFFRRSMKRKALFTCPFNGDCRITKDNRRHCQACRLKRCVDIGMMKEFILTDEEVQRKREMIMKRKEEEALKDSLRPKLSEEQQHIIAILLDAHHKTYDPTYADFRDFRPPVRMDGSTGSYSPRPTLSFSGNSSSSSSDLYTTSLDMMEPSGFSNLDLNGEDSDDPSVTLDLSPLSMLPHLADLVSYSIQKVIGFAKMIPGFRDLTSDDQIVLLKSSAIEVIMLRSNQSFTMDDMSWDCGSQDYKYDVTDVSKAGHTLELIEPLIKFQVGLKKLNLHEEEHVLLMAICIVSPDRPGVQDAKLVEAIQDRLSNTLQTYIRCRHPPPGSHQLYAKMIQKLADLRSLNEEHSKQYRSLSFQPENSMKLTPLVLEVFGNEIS
Kind of data set: competition with [3H]-1,25(OH)2D3 for binding to vitamin D receptor. The note with it: FIG. 2, read-out: Ki, competition with [3H]-1,25(OH)2D3 for VDR binding.

The test system of data set [2] is intestinal calcium transport. Kind of data set: intestinal calcium transport, everted gut sac method, vitamin D-deficient rats. Type of data set: in vivo, rat. The note with it: for intestinal calcium transport: everted gut sac, vitamin D-deficient rats. The protocol: (§1) Calcium mobilization from bone and intestinal calcium absorption in vitamin D-deficient animals. Using vitamin D-deficient rats on a low calcium diet (0.02%), the activities of these compounds in intestine and bone were tested.
Intestinal calcium transport was evaluated in the same groups of animals using the everted gut sac method (FIG. 5).

Another data set has as its system HL-60 cells. Briefly: HL-60 cell differentiation into monocytes. It counts as cell-based. The note with it: FIG. 3; for EC50: HL-60 cells, read-out: EC50, HL60 differentiation. The procedure:
The differentiation of HL-60 promyelocytic into monocytes was determined as described by Ostrem et al (J. Biol. Chem. 262, 14164-14171, 1987).
VDR binding and HL60 cell differentiation.

Data set [3] is described as follows: serum calcium response in vitamin D-sufficient normal female rats. It counts as in vivo, rat. Conditions: for serum calcium (hypercalcemia): normal female rats, 5000 pmol/day for 7 days, oral or intraperitoneal, 4 hours after last dose. The procedure: Serum calcium response in vitamin D-sufficient animals on a normal calcium diet. […] The doses were administered to two separate groups of animals by either the oral or intraperitoneal route, and serum calcium levels were assessed 4 hours after the last dose.

In data set [4] the test system is calcium mobilization from bone. Kind of data set: bone calcium mobilization in vitamin D-deficient rats on low calcium diet. Type of data set: in vivo, rat. The note with it: for bone calcium mobilization activity (serum calcium levels): low calcium diet (0.02%), overall / all dosages, FIG. 4. The protocol:
as §1

For data set [5], the system named is porcine intestinal vitamin D receptor. Kind of data set: binding to porcine intestinal vitamin D receptor. Conditions: FIG. 2.

In general, Ki refers to a measure of affinity in units of concentration, obtained from inhibition or displacement. As a reminder, the EC50 is the midpoint of the concentration-response curve. Regarding `C[C@H](CCCC(C)(C)O)[C@H]1CC[C@H]2/C(=C/C=C3C[C@@H](O)C[C@H](O)C3)CCC[C@]12C` [1,25(OH)2 19-nor-D3, 1α,25-dihydroxy-19-nor-vitamin D3, reference compound], the Ki in data set [1] is 0.2 nM. Moreover, the “intestinal calcium transport activity” value in data set [2] (overall, dose not stated) is on record as “devoid of intestinal calcium transport activity”. Moreover, the EC50 in the data set with HL-60 cells is 4 nM. The “serum calcium (hypercalcemia)” value in data set [3] is on record as “produced frank hypercalcemia”. Further, in data set [4] (260 pmol/day for 7 days), the “mobilization of bone calcium” value was “did not result in mobilization of bone calcium”.

`C=C1/C(=C\C=C2/CCC[C@]3(C)[C@@H]([C@H](C)CCCC(C)(C)O)CC[C@@H]23)C[C@@H](O)C[C@@H]1O` [1,25(OH)2D3, 1α,25-dihydroxyvitamin D3, reference compound]: the intestinal calcium transport result in data set [2] (260 pmol/day) was “promotes a significant increase”. Further, the EC50 in the data set with HL-60 cells is 5 nM. Also, the “bone calcium mobilization activity (serum calcium levels)” value (from here on “bone calcium mobilization activity”) in data set [4] is reported as “increased serum calcium levels at all dosages”.

With `C=C1C(O)CC(=CC=C2CCCC3(C)C2CCC3C(C)C)CC1O` (stereo not drawn) [2-MP, 1α-hydroxy-2-methylene-19-nor-homopregnacalciferol], in data set [1], the Ki is 0.3 nM. Also, the intestinal calcium transport entry in data set [2] (260 or 1300 pmol/day) is given as “calcium transport activity equivalent to 1,25(OH)2D3”. In data set [2] (doses higher than 1300 pmol/day), the “intestinal calcium transport activity” value is recorded as “decreased this activity”. In addition, the EC50 in the data set on HL-60 cells was found to be 6 nM. Further, the “mobilization of bone calcium” value is on record as “did not result in mobilization of bone calcium” in data set [4] (260 pmol/day for 7 days) and “without effect” in data set [4] (1300 pmol/day (5-fold)). Also, the “bone calcium mobilization activity” value in data set [4] is “little, if any, activity in mobilizing calcium from bone”.

For `C=C1[C@H](O)CC(=C/C=C2\CCC[C@]3(C)[C@@H]([C@@H](C)CC)CC[C@@H]23)C[C@H]1O` [2-MbisP, (20S)-1α-hydroxy-2-methylene-19-nor-bishomopregnacalciferol], the Ki in data set [1] came out at 0.6 nM. The intestinal calcium transport result in data set [2] (260 or 1300 pmol/day) is “do not promote intestinal calcium transport”. Besides, the “intestinal calcium transport activity” value in data set [2] (overall, dose not stated) is on record as “very little activity”. The “potency on HL-60 differentiation relative to 1,25(OH)2D3” value in the data set on HL-60 cells is “almost as potent as 1,25(OH)2D3”. For the same compound, in the data set with HL-60 cells (Homo sapiens), the EC50 came to 7 nM. The “serum calcium (hypercalcemia)” value in data set [3] is “no increase in serum calcium”. The “calcemic activity from serum calcium” value in data set [3] (rats, chronic doses, FIG. 6) is on record as “very little calcemic activity”. The “binding to porcine receptor compared to standard 1,25-(OH)2D3” value in data set [5] is listed as “bound equally well”. The figures for the “mobilization of bone calcium” value in data set [4] (260 pmol/day for 7 days) and in data set [4] (1300 pmol/day (5-fold)) were “did not result in mobilization of bone calcium” and “without effect”, respectively. For the same compound, the “bone calcium mobilization activity” value in data set [4] was “very little bone calcium mobilization activity; also recorded: little, if any, activity in mobilizing calcium from bone”.

Consider `C=C1[C@H](O)CC(=C/C=C2\CCC[C@]3(C)[C@@H](CC)CC[C@@H]23)C[C@H]1O` [2-Mpregna, 1α-hydroxy-2-methylene-19-nor-pregnacalciferol], for which, in data set [1], the Ki was 0.3 nM. Besides, the intestinal calcium transport entry in data set [2] (260 or 1300 pmol/day) is “do not promote intestinal calcium transport”. Besides, in the data set on HL-60 cells, the EC50 was 17 nM. The “mobilization of bone calcium” value in data set [4] (260 pmol/day for 7 days) is reported as “did not result in mobilization of bone calcium”; in data set [4] (1300 pmol/day (5-fold)), “without effect”. The “bone calcium mobilization activity” value in data set [4] is reported as “little, if any, activity in mobilizing calcium from bone”.
